Experimental data: ChEMBL document CHEMBL1201862, “PubChem BioAssay data set” (2004)
Activity calls are given as the source filed them.

Tests used:
[1] = target: T1, Tyrosine-protein phosphatase non-receptor type 7 (Homo sapiens, UniProt P35236); assay: Dose Response confirmation of compounds that inhibit HePTP. [Related pubchem assays (depositor defined):AID1059, AID1661, AID2085]; type: functional
T1 sequence (P35236 whole entry): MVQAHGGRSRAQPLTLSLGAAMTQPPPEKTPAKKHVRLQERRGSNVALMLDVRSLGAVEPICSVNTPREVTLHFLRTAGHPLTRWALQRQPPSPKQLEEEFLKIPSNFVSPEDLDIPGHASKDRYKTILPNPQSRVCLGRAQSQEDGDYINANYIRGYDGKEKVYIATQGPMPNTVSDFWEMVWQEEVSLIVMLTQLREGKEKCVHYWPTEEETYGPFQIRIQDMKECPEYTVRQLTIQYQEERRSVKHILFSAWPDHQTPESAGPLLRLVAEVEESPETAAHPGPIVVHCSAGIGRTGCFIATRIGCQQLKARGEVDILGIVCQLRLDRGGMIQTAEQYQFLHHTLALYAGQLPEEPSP

[2] = target: Peroxisome proliferator-activated receptor gamma/Nuclear receptor corepressor 2 (Homo sapiens, UniProt P37231+Q9Y618); assay: Counterscreen for NR2E3 inverse agonists: TR-FRET-based biochemical high throughput dose response assay to identify inverse agonists of the interaction between peroxisome proliferator-activated receptor gamma (PPARg) and nuclear receptor co-repressor 2 (NCOR2).; type: functional
[3] = target: Photoreceptor-specific nuclear receptor (Homo sapiens, UniProt Q9Y5X4); assay: NR2E3 inverse agonists, dose response, biochemical, TR-FRET (AID 463256); type: functional
[4] = target: T2, Dual specificity protein phosphatase 3 (Homo sapiens, UniProt P51452); assay: Dose Response Confirmation of compounds that inhibit VHR1 in Fluorescent Assay. [Related pubchem assays (depositor defined):AID1661, AID1878]; type: functional
[5] = target: T3, Polyadenylate-binding protein 1 (Homo sapiens, UniProt P11940); assay: PABP poly(A) RNA binding inhibitors, primary screen, biochemical, fluorescence polarization, uHTS (AID 2014)
[6] = target: DNA dC->dU-editing enzyme APOBEC-3A (Homo sapiens, UniProt P31941); assay: Dose Response confirmation of small molecule APOBEC3A DNA Deaminase Inhibitors via a fluorescence-based single-stranded DNA deaminase assay. [Related pubchem assays (depositor defined):AID493011, AID493024]; type: functional
[7] = target: T4, Eukaryotic translation initiation factor 4H (Homo sapiens, UniProt Q15056); assay: human eIF4H binding inhibitors, primary screen, translation initiation inhibitor project, biochemical, uHTS, fluorescence polarization (AID 2012)
[8] = target: DNA dC->dU-editing enzyme APOBEC-3G (Homo sapiens, UniProt Q9HC16); type: functional;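 also: Dose-response counterscreen measuring inhibition of APOBEC3G DNA deaminase activity, run while confirming APOBEC3A inhibitors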
Tumor necrosis factor = Tumor necrosis factor (Homo sapiens, UniProt P01375); assay: TNFa-triggered NF-kB activation inhibitors, SAR follow-up, cell-based, revised (AID 2337); type: functional
Interleukin-8 [9] = target: T5, Interleukin-8 (Homo sapiens, UniProt P10145); assay: SAR analysis of GM-Tri-DAP induced IL-8 secretion in MCF-7/NOD1 cells - Set 2. [Related pubchem assays (depositor defined):AID1575, AID1578, AID2333]; type: functional, cell-based
T5 sequence (P10145 whole entry): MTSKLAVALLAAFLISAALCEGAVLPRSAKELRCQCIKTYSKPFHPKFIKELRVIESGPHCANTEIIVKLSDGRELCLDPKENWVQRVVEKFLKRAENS

Interleukin-8 [10] = target: T5, Interleukin-8; assay: SAR analysis of Tumor necrosis factor alpha (TNF-alpha) induced IL-8 secretion in MCF-7/NOD1 cells - Set 2. [Related pubchem assays (depositor defined):AID1575, AID2250, AID2260]; type: functional, cell-based
[11] = target: T6, Nucleotide-binding oligomerization domain-containing protein 1 (Homo sapiens, UniProt Q9Y239); assay: NOD1 signaling inhibitors, SAR follow-up, revised (AID 2333); type: functional
T6 sequence (Q9Y239 whole entry): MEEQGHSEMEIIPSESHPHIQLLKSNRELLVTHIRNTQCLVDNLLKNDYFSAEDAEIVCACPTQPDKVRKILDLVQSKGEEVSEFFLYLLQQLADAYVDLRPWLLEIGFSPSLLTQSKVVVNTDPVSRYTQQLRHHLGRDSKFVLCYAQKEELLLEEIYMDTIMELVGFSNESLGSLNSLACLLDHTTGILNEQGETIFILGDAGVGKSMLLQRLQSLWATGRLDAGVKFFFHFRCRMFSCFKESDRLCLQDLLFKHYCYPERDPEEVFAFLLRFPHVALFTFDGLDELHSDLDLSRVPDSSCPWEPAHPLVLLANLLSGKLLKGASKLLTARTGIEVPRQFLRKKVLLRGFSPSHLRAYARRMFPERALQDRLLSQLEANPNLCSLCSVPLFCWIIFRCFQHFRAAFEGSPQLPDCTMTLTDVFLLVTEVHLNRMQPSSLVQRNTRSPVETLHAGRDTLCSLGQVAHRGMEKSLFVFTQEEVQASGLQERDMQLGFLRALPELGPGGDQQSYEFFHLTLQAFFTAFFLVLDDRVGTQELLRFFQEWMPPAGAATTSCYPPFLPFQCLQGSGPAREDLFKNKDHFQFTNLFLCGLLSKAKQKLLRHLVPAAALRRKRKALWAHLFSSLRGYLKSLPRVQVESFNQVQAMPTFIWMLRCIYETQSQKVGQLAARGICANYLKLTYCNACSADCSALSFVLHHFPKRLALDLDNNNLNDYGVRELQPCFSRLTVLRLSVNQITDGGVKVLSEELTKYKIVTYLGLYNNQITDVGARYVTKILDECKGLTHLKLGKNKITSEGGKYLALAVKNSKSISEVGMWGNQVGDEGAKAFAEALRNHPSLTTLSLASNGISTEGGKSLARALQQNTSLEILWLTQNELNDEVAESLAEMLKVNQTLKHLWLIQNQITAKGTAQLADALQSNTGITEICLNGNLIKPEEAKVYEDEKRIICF

[12] = target: Nucleotide-binding oligomerization domain-containing protein 2 (Homo sapiens, UniProt Q9HC29); assay: PubChem AID 2334; type: functional
HEK293 = assay: cells; settings: Homo sapiens;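 also: cells exposed to compound for 14 hours overnight before viability readout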
[13] = target: T4, Eukaryotic translation initiation factor 4H; assay: eIF4H inhibition in translation initiation, SAR follow-up (AID 435011); type: functional
[14] = StAR promoter reporter inhibition counter-screen, dose response, counter-screen for LRH-1 inverse agonist project, cell-based, luminescence, luciferase reporter (AID 651969); type: functional
[15] = target: T3, Polyadenylate-binding protein 1; assay: PABP inhibition in translation initiation, SAR follow-up (AID 435018); type: functional
[16] = target: Nuclear receptor subfamily 5 group A member 2 (Homo sapiens, UniProt O00482); type: functional, cell-based;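 also: HEK293T cells transfected with LRH-1 and a StAR promoter luciferase reporter; potency for inhibitors that lower LRH-1 driven reporter light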
Steroidogenic factor 1 = Steroidogenic factor 1 (Homo sapiens, UniProt Q13285); assay: Counterscreen for inverse agonists of the liver receptor homolog-1 (LRH-1; NR5A2): Luminescence-based cell-based high throughput dose response assay to identify inverse agonists of the Steroidogenic Factor 1 Nuclear Receptor (SF1; NR5A1).; type: functional
[17] = target: T7, Intestinal-type alkaline phosphatase (Homo sapiens, UniProt P09923); assay: human intestinal alkaline phosphatase activators, dose response, biochemical, luminescence, uHTS hits (AID 463120); type: functional
[18] = target: T7, Intestinal-type alkaline phosphatase; assay: Dose Response confirmation of uHTS hits from a small molecule inhibitors of human intestinal alkaline phosphatase via a luminescent assay. [Related pubchem assays (depositor defined):AID2544, AID2574]; type: functional
[19] = target: T2, Dual specificity protein phosphatase 3; assay: VHR1 inhibitor Ki determination, SAR follow-up, biochemical, colorimetric (AID 2004)

T3 sequence (P11940 whole entry): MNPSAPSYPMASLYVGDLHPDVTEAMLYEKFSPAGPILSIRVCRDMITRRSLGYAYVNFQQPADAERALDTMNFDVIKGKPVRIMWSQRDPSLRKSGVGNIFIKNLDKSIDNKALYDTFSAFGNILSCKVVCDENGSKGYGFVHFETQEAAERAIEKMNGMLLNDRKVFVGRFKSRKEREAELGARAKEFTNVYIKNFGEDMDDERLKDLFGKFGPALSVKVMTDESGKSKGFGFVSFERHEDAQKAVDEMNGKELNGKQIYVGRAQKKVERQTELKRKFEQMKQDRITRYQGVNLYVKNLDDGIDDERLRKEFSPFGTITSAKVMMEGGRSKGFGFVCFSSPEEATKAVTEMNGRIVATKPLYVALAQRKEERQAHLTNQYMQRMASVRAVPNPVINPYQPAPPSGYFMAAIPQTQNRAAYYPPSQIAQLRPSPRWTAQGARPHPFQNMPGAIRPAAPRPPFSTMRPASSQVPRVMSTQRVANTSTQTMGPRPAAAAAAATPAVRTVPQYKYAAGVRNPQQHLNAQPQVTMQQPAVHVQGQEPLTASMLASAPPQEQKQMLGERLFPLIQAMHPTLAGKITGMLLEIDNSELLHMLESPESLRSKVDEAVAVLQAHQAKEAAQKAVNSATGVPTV
T2 sequence (P51452 whole entry): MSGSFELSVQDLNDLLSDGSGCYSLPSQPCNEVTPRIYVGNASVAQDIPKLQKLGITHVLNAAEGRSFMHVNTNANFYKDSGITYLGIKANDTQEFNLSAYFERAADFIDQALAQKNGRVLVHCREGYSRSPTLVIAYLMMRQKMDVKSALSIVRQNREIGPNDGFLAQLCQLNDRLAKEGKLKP
T7 sequence (P09923 whole entry): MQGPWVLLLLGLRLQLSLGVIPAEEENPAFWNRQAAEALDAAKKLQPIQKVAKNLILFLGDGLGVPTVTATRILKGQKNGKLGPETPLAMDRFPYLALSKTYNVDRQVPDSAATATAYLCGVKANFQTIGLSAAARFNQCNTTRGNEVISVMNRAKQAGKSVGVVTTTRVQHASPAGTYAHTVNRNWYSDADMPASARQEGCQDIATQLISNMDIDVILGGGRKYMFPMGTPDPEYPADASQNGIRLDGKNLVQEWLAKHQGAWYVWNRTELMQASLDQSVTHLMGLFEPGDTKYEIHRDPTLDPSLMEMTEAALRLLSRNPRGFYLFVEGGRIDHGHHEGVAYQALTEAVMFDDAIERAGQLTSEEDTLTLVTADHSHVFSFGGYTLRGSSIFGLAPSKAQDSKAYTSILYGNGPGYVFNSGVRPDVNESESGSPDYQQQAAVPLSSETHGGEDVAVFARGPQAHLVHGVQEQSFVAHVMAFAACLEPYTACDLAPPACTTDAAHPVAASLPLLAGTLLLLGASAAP
Chain of Nucleotide-binding oligomerization domain-containing protein 2 (Q9HC29 whole entry, the tested form may be a part): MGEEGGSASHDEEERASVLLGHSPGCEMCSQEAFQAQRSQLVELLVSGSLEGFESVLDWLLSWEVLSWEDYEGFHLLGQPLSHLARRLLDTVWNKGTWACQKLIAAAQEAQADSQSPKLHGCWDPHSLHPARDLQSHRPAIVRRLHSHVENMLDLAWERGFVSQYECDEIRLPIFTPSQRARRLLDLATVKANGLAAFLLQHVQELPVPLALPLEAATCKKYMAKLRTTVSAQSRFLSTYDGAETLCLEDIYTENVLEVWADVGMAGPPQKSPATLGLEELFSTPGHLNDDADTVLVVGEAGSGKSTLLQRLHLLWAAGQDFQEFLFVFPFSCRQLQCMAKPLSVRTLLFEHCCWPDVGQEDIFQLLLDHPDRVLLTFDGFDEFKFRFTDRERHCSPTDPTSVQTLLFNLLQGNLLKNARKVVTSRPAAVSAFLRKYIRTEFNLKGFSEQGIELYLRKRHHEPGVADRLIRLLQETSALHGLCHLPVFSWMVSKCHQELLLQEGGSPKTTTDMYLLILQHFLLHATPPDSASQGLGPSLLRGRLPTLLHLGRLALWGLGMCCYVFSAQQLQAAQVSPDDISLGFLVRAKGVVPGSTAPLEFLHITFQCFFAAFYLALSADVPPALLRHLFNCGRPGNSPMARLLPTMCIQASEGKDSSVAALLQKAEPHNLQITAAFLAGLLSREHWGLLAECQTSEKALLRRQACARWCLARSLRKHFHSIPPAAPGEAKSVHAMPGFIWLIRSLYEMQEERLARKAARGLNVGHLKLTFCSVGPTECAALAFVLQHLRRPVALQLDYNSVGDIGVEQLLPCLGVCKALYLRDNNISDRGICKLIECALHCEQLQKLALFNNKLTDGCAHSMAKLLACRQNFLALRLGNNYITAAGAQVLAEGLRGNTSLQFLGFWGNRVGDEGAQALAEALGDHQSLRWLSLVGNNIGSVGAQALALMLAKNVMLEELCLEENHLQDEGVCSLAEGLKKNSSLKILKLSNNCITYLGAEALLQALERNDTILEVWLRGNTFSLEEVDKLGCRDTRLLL
Chain of Steroidogenic factor 1 (Q13285 whole entry): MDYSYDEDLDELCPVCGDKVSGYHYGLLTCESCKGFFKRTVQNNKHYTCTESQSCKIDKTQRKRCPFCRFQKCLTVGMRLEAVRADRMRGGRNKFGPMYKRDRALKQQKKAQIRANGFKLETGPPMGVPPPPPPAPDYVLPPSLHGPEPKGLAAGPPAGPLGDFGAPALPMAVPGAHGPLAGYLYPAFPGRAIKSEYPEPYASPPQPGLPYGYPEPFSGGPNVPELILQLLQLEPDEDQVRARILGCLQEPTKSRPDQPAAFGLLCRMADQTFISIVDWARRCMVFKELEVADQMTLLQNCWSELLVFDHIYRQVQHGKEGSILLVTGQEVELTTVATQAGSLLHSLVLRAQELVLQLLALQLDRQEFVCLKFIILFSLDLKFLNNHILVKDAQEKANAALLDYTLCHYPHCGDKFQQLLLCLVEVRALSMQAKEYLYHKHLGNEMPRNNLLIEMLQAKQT
Chain of Nuclear receptor subfamily 5 group A member 2 (O00482 whole entry): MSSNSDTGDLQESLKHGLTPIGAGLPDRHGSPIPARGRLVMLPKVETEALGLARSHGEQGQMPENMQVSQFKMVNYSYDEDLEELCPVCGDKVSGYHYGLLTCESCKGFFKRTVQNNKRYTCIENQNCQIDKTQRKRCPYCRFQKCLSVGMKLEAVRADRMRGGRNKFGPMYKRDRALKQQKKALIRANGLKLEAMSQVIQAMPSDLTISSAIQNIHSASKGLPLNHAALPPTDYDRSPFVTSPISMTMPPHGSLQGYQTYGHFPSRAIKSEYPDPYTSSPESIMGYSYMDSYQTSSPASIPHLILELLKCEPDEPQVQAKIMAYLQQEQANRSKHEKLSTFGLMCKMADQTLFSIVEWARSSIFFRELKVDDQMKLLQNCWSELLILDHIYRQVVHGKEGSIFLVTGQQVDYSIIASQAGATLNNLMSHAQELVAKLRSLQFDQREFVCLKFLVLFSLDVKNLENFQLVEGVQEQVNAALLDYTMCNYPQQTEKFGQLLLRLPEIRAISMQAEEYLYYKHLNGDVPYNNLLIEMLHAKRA
Chain of DNA dC->dU-editing enzyme APOBEC-3G (Q9HC16 whole entry): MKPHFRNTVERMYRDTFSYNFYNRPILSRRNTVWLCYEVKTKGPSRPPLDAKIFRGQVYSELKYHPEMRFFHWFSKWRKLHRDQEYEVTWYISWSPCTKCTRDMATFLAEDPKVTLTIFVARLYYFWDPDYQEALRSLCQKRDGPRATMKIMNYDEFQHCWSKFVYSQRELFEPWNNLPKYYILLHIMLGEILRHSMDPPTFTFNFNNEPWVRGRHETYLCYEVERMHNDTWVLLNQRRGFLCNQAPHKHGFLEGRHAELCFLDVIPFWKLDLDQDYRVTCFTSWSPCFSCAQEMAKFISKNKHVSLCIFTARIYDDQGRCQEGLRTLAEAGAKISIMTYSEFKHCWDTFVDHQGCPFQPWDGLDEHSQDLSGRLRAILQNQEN
Chain of Tumor necrosis factor (P01375 whole entry): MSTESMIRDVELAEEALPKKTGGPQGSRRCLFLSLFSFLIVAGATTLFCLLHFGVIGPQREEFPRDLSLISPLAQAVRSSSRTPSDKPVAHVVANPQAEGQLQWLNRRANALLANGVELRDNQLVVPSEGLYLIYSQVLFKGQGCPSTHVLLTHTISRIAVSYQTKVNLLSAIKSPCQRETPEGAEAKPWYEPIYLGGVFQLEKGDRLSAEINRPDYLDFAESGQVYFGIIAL
Chain of Photoreceptor-specific nuclear receptor (Q9Y5X4 whole entry): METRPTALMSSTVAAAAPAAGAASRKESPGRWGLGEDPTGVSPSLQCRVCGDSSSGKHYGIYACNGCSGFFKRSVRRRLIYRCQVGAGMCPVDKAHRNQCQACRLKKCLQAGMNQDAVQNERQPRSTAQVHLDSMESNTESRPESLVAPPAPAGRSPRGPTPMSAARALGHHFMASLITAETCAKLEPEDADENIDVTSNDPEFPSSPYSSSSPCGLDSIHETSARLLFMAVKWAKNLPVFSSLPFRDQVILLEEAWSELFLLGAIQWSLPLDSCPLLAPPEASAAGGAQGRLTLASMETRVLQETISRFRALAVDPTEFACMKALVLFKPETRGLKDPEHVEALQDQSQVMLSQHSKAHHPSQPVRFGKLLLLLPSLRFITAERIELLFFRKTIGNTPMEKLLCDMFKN
Chain of DNA dC->dU-editing enzyme APOBEC-3A (P31941 whole entry): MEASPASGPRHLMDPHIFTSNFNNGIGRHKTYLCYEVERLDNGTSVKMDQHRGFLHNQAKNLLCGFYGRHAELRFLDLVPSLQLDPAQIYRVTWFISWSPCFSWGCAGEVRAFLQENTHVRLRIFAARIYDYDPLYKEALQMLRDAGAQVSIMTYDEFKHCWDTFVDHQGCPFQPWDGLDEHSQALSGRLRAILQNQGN

In the case of `O=C(Nc1ccc2oc(-c3cccnc3)nc2c1)c1ccc2c(c1)OCCO2`, the IC50 [1] is reported as 5.36 µM (active), the IC50 [2] is reported as 1.46 µM (active) and the IC50 [3] is reported as 1.61 µM (active). For the same compound, the IC50 [4] was 8.43 µM (active).
With `Cn1ccccc1=Nc1cccc[n+]1C` the IC50 [5] was 6.54 µM (active), the IC50 [6] was 2.8 µM (active) and the IC50 [7] was > 100 µM (inactive). The IC50 [8] was 4.12 µM (active).
For `COc1ccc(C(=O)Cn2c(N)nc3ccccc32)cc1`, the IC50 (Tumor necrosis factor) was > 20 µM (inactive), the IC50 (Interleukin-8 [9]) was > 25 µM (inactive) and the IC50 (Interleukin-8 [10]) was > 25 µM (inactive). The IC50 [11] was > 20 µM (inactive), the IC50 [12] was > 20 µM (inactive) and the IC50 (HEK293) was > 20 µM (inactive).
In the case of `CC(=O)Nc1ccc(NC(=O)CSc2ccc(-c3ccco3)nn2)cc1`, the IC50 [13] is reported as 31.1 µM (active), the IC50 [14] is reported as 35.9 µM (inactive) and the IC50 [15] is reported as > 100 µM (inactive). The IC50 [16] was 35.9 µM (inactive) and the IC50 (Steroidogenic factor 1) was 35.9 µM (inactive).
In the case of `O=S(=O)(c1ccccc1)N1CCCC1c1cccs1` (configuration not stated), the EC50 [17] is reported as > 100 µM (inactive) and the IC50 [18] is reported as > 100 µM (inactive).
With `CCN(CC)c1ccc(Nc2nc(-c3sc(N)nc3C)cs2)cc1` the Ki [19] was 30.2 µM (inactive).
